These results are taken from patent publication US12291518B2, “Thyroid hormone receptor agonists and use thereof” (Eccogene Inc., priority 2020, dated 2025).

As usually defined, the EC50 is the concentration at which the effect is half-maximal.

In one test the target is T1, THR beta-LBD (Homo sapiens, UniProt P10828).
T1 construct: THR beta-LBD (the final concentration is 0.5 nM) was added to the 384-well assay plate; purchased Invitrogen PV4686
T1 sequence (P10828 217-461 limits assumed): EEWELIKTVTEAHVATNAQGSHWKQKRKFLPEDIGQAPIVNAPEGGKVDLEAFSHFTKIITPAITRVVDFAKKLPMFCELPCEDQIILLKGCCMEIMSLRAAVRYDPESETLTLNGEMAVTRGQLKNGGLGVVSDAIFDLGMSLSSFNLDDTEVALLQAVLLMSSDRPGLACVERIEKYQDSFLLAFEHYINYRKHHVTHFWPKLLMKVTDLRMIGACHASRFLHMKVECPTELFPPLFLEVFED
The test can be described thus: THR-β Coactivator Peptide Recruitment Assay (LanthaScreen TR-FRET). It is filed as biochemical. As to conditions: TR-FRET coactivator recruitment, THR beta-LBD 0.5 nM; for EC50: read-out: THRβ EC50. Summed up:
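Agonist-driven coactivator recruitment read as a 520/495 nm TR-FRET emission ratio after 2 h at room temperature. Final concentrations: THR beta-LBD 0.5 nM, fluorescein-SRC2-2 peptide 0.1 nM, terbium anti-GST antibody 2 nM. EC50 from four-parameter dose-response fitting.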
On the technique in general: TR-FRET usually uses a lanthanide donor and a delayed reading to cut background.

For the next test, the target named is T2, THR alpha-LBD (Homo sapiens, UniProt P10827).
T2 construct: except that THR alpha-LBD of a final concentration 0.25 nM was used; purchased Invitrogen PV4687
The test can be described thus: THR-α Coactivator Peptide Recruitment Assay (LanthaScreen TR-FRET). Format: biochemical. As to conditions: TR-FRET coactivator recruitment, THR alpha-LBD 0.25 nM; for EC50: read-out: THRα EC50. Summed up:
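TR-FRET coactivator recruitment with THR alpha-LBD at 0.25 nM final, Fluorescein-SRC2-2 peptide 0.1 nM and Tb-labeled anti-GST antibody 2 nM; 2 h incubation at room temperature. 520/495 nm emission ratio fitted to a four-parameter sigmoidal curve to give EC50.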

T2 sequence (P10827 163-410 isoform P10827-2 limits assumed, other chains not shown): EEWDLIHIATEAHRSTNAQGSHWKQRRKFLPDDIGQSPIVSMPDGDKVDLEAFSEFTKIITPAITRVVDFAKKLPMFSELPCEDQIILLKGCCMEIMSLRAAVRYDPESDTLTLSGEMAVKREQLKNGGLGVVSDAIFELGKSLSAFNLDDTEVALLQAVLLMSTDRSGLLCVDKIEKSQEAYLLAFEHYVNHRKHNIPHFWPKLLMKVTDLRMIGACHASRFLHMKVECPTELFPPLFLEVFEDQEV

With `O=c1[nH]c(=O)n(-c2cc(Cl)c(Oc3ccc(O)c(S(=O)(=O)N[C@@H]4CCN(S(=O)(=O)C5CC5)C4)c3)c(Cl)c2)nc1C(F)F` [Compound 48, (R)-N-(1-(cyclopropylsulfonyl)pyrrolidin-3-yl)-5-(2,6-dichloro-4-(6-(difluoromethyl)-3,5-dioxo-4,5-dihydro-1,2,4-triazin-2(3H)-yl)phenoxy)-2-hydroxybenzenesulfonamide], on THR beta-LBD, the “THRβ Emax” value is “C (<75)” and the EC50 lay in the range of 2 to 20 nM. On THR alpha-LBD, the “THRα Emax” value is “B (40~85)” and the EC50 lay within 200 to 1000 nM.

On to `O=c1[nH]c(=O)n(-c2cc(Cl)c(Oc3ccc(O)c(S(=O)(=O)N[C@H]4CCN(S(=O)(=O)C5CC5)C4)c3)c(Cl)c2)nc1C(F)F` [Compound 49, (S)-N-(1-(cyclopropylsulfonyl)pyrrolidin-3-yl)-5-(2,6-dichloro-4-(6-(difluoromethyl)-3,5-dioxo-4,5-dihydro-1,2,4-triazin-2(3H)-yl)phenoxy)-2-hydroxybenzenesulfonamide], for which, at THR beta-LBD, the “THRβ Emax” value is listed as “C (<75)” and the 50% effective concentration (EC50) fell in the range of 2 to 20 nM. Moreover, on THR alpha-LBD, the “THRα Emax” value is “C (<40)” and the EC50 fell in the range of 200 to 1000 nM.

As to `CS(=O)(=O)N1CC[C@H](NS(=O)(=O)c2cc(Oc3c(Cl)cc(-n4nc(C(F)F)c(=O)[nH]c4=O)cc3Cl)ccc2O)C1` [Compound 50, (S)-5-(2,6-dichloro-4-(6-(difluoromethyl)-3,5-dioxo-4,5-dihydro-1,2,4-triazin-2(3H)-yl)phenoxy)-2-hydroxy-N-(1-(methylsulfonyl)pyrrolidin-3-yl)benzenesulfonamide], at THR beta-LBD, the “THRβ Emax” value was “C (<75)” and the 50% effective concentration (EC50) lay within 2 to 20 nM. At THR alpha-LBD, the “THRα Emax” value was “B (40~85)” and the EC50 is 200 to 1000 nM.

`CS(=O)(=O)N1CC[C@@H](NS(=O)(=O)c2cc(Oc3c(Cl)cc(-n4nc(C(F)F)c(=O)[nH]c4=O)cc3Cl)ccc2O)C1` [Compound 51, (R)-5-(2,6-dichloro-4-(6-(difluoromethyl)-3,5-dioxo-4,5-dihydro-1,2,4-triazin-2(3H)-yl)phenoxy)-2-hydroxy-N-(1-(methylsulfonyl)pyrrolidin-3-yl)benzenesulfonamide]: on THR beta-LBD, the “THRβ Emax” value was “C (<75)” and the EC50 fell in the range of 2 to 20 nM. For the same compound, on THR alpha-LBD, the “THRα Emax” value was “B (40~85)” and the EC50 was 200 to 1000 nM.

As to `O=C(C1CC1)N1CC(NS(=O)(=O)c2cc(Oc3c(Cl)cc(-n4nc(C(F)F)c(=O)[nH]c4=O)cc3Cl)ccc2O)C1` [Compound 52, N-(1-(cyclopropanecarbonyl)azetidin-3-yl)-5-(2,6-dichloro-4-(6-(difluoromethyl)-3,5-dioxo-4,5-dihydro-1,2,4-triazin-2(3H)-yl)phenoxy)-2-hydroxybenzenesulfonamide], at THR beta-LBD, the “THRβ Emax” value is recorded as “B (75~90)” and the EC50 fell in the range of 20 to 100 nM. Moreover, on THR alpha-LBD, the “THRα Emax” value is on record as “B (40~85)” and the EC50 was above 1000 nM.

Take `CN(C)C(=O)N1CC(NS(=O)(=O)c2cc(Oc3c(Cl)cc(-n4nc(C(F)F)c(=O)[nH]c4=O)cc3Cl)ccc2O)C1` [Compound 53, 3-((5-(2,6-dichloro-4-(6-(difluoromethyl)-3,5-dioxo-4,5-dihydro-1,2,4-triazin-2(3H)-yl)phenoxy)-2-hydroxyphenyl)sulfonamido)-N,N-dimethylazetidine-1-carboxamide]: on THR beta-LBD, the “THRβ Emax” value is given as “B (75~90)” and the concentration for a half-maximal effect (EC50) is 2 to 20 nM. For the same compound, on THR alpha-LBD, the “THRα Emax” value is listed as “B (40~85)” and the EC50 was above 1000 nM.

Take `CS(=O)(=O)N1CC(NS(=O)(=O)c2cc(Oc3c(Cl)cc(-n4nc(C(F)F)c(=O)[nH]c4=O)cc3Cl)ccc2O)C1` [Compound 54, 5-(2,6-dichloro-4-(6-(difluoromethyl)-3,5-dioxo-4,5-dihydro-1,2,4-triazin-2(3H)-yl)phenoxy)-2-hydroxy-N-(1-(methylsulfonyl)azetidin-3-yl)benzenesulfonamide]: at THR beta-LBD, the “THRβ Emax” value was “C (<75)” and the concentration for a half-maximal effect (EC50) lay within 20 to 100 nM. Further, at THR alpha-LBD, the “THRα Emax” value was “B (40~85)” and the concentration giving a half-maximal response (EC50) was 200 to 1000 nM.
